In the assay the target is CMP-sialic acid synthetase (NmCSS) (Neisseria meningitidis, UniProt P0A0Z8). The assay is described as follows: X-ray crystal structure. Format: biochemical.
CMP-sialic acid synthetase (NmCSS), sequence (P0A0Z8 whole entry): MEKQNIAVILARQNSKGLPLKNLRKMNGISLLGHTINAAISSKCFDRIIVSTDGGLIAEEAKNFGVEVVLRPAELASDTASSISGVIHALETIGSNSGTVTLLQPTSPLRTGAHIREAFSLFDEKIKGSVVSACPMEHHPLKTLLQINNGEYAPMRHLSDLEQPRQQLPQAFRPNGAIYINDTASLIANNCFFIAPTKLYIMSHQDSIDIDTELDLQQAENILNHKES

With `CC(=O)N[C@H]1[C@H]([C@H](O)[C@H](O)CO)OC(C(=O)O)=C[C@@H]1O` [Neu5Ac2en, 2-deoxy-2,3-dehydro-N-acetylneuraminic acid], the midpoint of inhibition, the IC50, lay at 130 ± 10 µM.

The values above are taken from publication PMC7814854 (Biochemistry, 2019).
